The source of these data is US4578382A, “4-acylamino-1-azaadamantanes, and compositions for use thereof in medicine” (Etablissements Nativelle S.A., priority 1981, dated 1986).

Data set [1] is described as follows: Lawson test (cardiac antifibrillatory power, chloroform). The note with it: in vivo, ip; mouse, intraperitoneal; read-out: Maximum Dose Tolerated.
Data set [2] deals with anesthetized dog. Put plainly: Hemodynamic (cardiovascular) tolerance in the anesthetized dog. It is filed as in vivo. The note with it: i.v., vs control period. As for the experimental part: The hemodynamic tolerance of the derivatives of the invention was studied on dogs anesthesized with sodium pentobarbital. Endocavitary pressures were measured by means of catheters connected to Statham sensors while external recording of the electrocardiogram (E.C.G.) provided the measurement of cardiac frequency. Cardiac flow was measured by means of an electromagnetic sensor placed on the beginning of the aorta. The total peripheral resistances R were calculated from the value of the average aortic pressure (P) and the cardiac flow (Q) in accordance with the formula R=P/Q.
After measurement of the parameters during a control period, the derivatives were injected intravenously in cumulative doses (30 minute interval between doses). The variations of the parameters in relation to the control period were measured within 20 and 30 minutes after each injection and are expressed as a percentage of variation in relation to the control.
Table 2 summarizes the variations in hemodynamic parameters observed between the first and last injections.

Data set [3] relates to anoxic ventricular fibrillation. Put plainly: Lawson test (cardiac antifibrillatory power, chloroform). It is filed as in vivo. Particulars: ip; mouse, intraperitoneal, 10 minutes before chloroform. As for the experimental part:
The Lawson test is a test for the study of the cardiac antifibrillatory power of the derivatives. The mice (20 per group) received an intraperitoneal injection of the derivative 10 minutes before being placed in a chloroform-saturated atmosphere. Upon respiratory arrest, the thorax was opened (5 to 10 seconds) and whether or not the heart was in ventricular fibrillation was checked. The efficacy dose 50 (ED 50) of the derivative being studied is the dose which protects half the mice against anoxic ventricular fibrillation.

Data set [4] in a line: Acute toxicity in the mouse (LD 50, Litchfield and Wilcoxon). Particulars: in vivo. As for the experimental part:
The acute toxicity of the derivatives of the invention were studied by intraperitoneal administration (I.P.) on the mouse (10 animals, 5 males and 5 females per dose) and calculation of the lethal dose 50 (LD 50) in accordance with the method of Litchfield and Wilcoxon (J. Pharmacol. 96, 99-113 (1949)).
In certain cases (derivatives of Examples 4, 6, 9), the LD 50 was also calculated after oral administration (P.O.) of the derivatives.

Data set [5] relates to anesthetized dog. Briefly: Electrophysiological studies on the anesthetized dog. Particulars: i.v. The format is in vivo. As for the experimental part:
This study was carried out on dogs anesthetized with pentobarbital, with a closed thorax, by means of bipolar catheter-electrodes introduced into the cardiac cavities by transcutaneous venous and arterial means. The surface electrocardiogram (standard derivation D2) is recorded permanently.
By means of a programmable JANSEN (R) stimulator, the following parameters may be measured:
spontaneous cardiac frequency (FC);
sinus recuperation time (SRTc) after auricular stimulation imposed at 160 b/mn for 1 mn;
intracardiac conduction times (auriculohisien at a constant frequency, His-Purkinje, intraventricular);
the effective and functional refractory periods measured at an imposed constant frequency, with the extrastimulus method.
During the electrophysiological study, the derivatives were injected intravenously for 2 minutes for each dose and at 30 minute intervals between each dose. The doses are expressed as a cumulative value and as a base term.
The measurement of the various parameters was carried out before the injection of the first dose (control period) and from 10 to 28 minutes after the injection of each dose of the substance. The results are expressed as a percentage of variation in relation to the control period.

For data set [6], the system named is ventricular arrhythmias with adrenalin. Put plainly: Test with adrenalin after experimental infarct. It is filed as in vivo, dog. An excerpt: (§1) Narcisse et al, Ann. Pharma. Fr., 37, 325-330 (1979), in the rat by the aconitine intoxication test of S. Witchitz et al, Coeur Med. Int., X(2), 281-286, (1971) and in the dog by the Harris test described in Circulation, 1, 1318, (1950) and by the test with adrenalin after experimental infarct of I. J. Steffe et al, J. Pharmacol. Exp. Ther., 214, 50-57 (1980).
2 to 5 days after an experimental infarct, the effects of discontinuous injections (in intravenous bolus of […] of basic adrenalin) of adrenalin were observed on the electrocardioagram of the conscious dog.
During a first phase (control) of the experiment, three successive injections of adrenalin were given and, in the 2 minutes following each injection, the frequency of the ventricular extrasystoles was measured. In this manner, by increasing the dose of adrenalin as necessary, it was possible to determine the dose which caused the appearance of ventricular extrasystoles at a higher frequency than or equal to half the total number of ventricular systoles.
After injection of the derivative to be tested, the same dose of adrenalin was reinjected after 5 minutes, then 30 minutes, 60 minutes, 90 minutes, etc., and its effects were compared to those observed during the control period.
The results therein are expressed as a percentage of extrasystoles (on the total number of systoles) measured during the 2 minutes following the injection of adrenalin before and after the administration of the derivative to be tested.

For data set [7], the system named is ventricular arrhythmias and death induced by the aconitine. Put plainly: Aconitine intoxication test in the anesthetized rat. The format is in vivo. The note with it: i.v., vs untreated control.
Source text: as §1
The anesthetized rat was intoxicated with an intravenous perfusion of aconitine while its electrocardiogram (ECG) was permanently recorded. During the perfusion at constant rate, the time necessary for the appearance of ventricular arrhythmias, successive extrasystoles (ESV), then stable ventricular tachycardium (TV) and the time within which the animal died were measured.
The animals were divided into a control group (untreated) and treated groups (different doses). The results are expressed as a percentage of prolonging the time of appearance of the arrhythmias and of death of the treated groups in reaction to the control group.
The results obtained are shown in Table 4 below and express the percentage of prolongation of the time of appearance of ventricular arrhythmias (ventricular extrasystoles and ventricular tachycardiums), and of the death, induced by the aconitine after an intravenous injection (I.V.) of several derivatives of the invention, in relation to a group of untreated control animals.

The mark [8] stands for this setting: cumulative doses 0.1 to 3 mg/kg.
The mark [9] stands for this setting: ip, intraperitoneal, read-out: LD 50 I.P.
[10] abbreviates: doses 0.5 to 5 mg/kg, 3 evaluations.
Setting [11] is: 4.3 mg/kg, control period 94% of ESV.
Setting [12] is: doses 1 to 19 mg/kg, 2 evaluations.
The mark [13] stands for this setting: 1 mg/kg, control period 48% of ESV.

Where two headings read alike, the source gives them in different places.

By ED50 is commonly meant the dose at which the effect has come halfway, by size or by number of responders. Read a low ED50 as greater potency.

On to `CC1(NC(=O)c2ccc(N)cc2)C2CC3CC1CN(C2)C3(C)C` (stereo not shown) [Example 3, N-(p-aminobenzoyl)-4-amino-4,8,8-trimethyl-1-azaadamantane], for which the MTD in data set [1] amounted to 50 mg/kg. In the data set on anesthetized dog [2] (setting [8]), the “Cardiac Flow, percentage of variation” value was “+7 to -32%”; the “Cardiac Frequency, percentage of variation” value lay within 0 to -14%; the “Systolic Arterial Pressure, percentage of variation” value was -3 to -33%; the “Total Peripheral Resistances, percentage of variation” value is on record as -10 to +7%. Further, the “dp/dt/p Left Ventricular, percentage of variation” value in the data set with anesthetized dog [2] (setting [8]) is “+14 to -50%”. In data set [3], this molecule registered an ED50 of 37 mg/kg. For the same molecule, in data set [4] (setting [9]), the LD50 came out at 95 mg/kg. Also, in the data set on anesthetized dog [5] (setting [10]), the “F.C. (cardiac frequency), variation” value lay in the range of 0 to -24%; the “HV (time of His-Purkinje conduction), variation” value is on record as “+13 to +98%”; the “PREA (effective auricular refractory period), variation” value is “+2 to +50%”; the “PREV (effective ventricular refractory period), variation” value is on record as 0 to +20%. Further, in the data set with anesthetized dog [5] (setting [10]), the “QRS (time of intraventricular conduction), variation” value is on record as “+8 to +39%” and the “St-H (time of auriculohisien conduction), variation” value is recorded as “+2 to +76%”. Further, in data set [6] (setting [11]), the “ESV Percentage at 5 min” value was determined as 63%, the “ESV Percentage at 30 min” value amounted to 77% and the “ESV Percentage at 60 min” value is recorded as 90%.

On to `CC1(NC(=O)Cc2ccccc2)C2CC3CC1CN(C2)C3(C)C` (stereo not shown) [Example 9, N-phenylacetyl-4-amino-4,8,8-trimethyl-1-azaadamantane], for which, in data set [7] (10 mg/kg), the “Prolongation of time of appearance of ventricular extrasystoles (ESV)” value (“Prolongation of time of appearance … (ESV)” below) is given as “+31%”, the “Prolongation of time of appearance of ventricular tachycardium (TV)” value (“Prolongation of time of appearance … (TV)” below) is “+79%” and the “Prolongation of time to death” value is reported as “+44%”. Also, in data set [7] (20 mg/kg), the “Prolongation of time of appearance … (ESV)” value is given as “+100%”, the “Prolongation of time of appearance … (TV)” value is listed as “+79%” and the “Prolongation of time to death” value is listed as “+84%”. Also, in data set [7] (40 mg/kg), the “Prolongation of time of appearance … (ESV)” value is “+171%”, the “Prolongation of time of appearance … (TV)” value is on record as “+147%” and the “Prolongation of time to death” value is reported as “+88%”. Moreover, in data set [1], the MTD worked out at 200 mg/kg. For the same molecule, in the data set on anesthetized dog [2] (cumulative doses 1 to 10 mg/kg), the “Cardiac Flow, percentage of variation” value is recorded as 0 to -30%; the “Cardiac Frequency, percentage of variation” value lay within 0 to -12%; the “Total Peripheral Resistances, percentage of variation” value is -5 to +15%; the “dp/dt/p Left Ventricular, percentage of variation” value is recorded as 0 to -33%. The ED50 in data set [3] worked out at 90 mg/kg. Besides, the LD50 in data set [4] (setting [9]) was 430 mg/kg. In addition, the LD50 in data set [4] (oral, read-out: LD 50 P.O.) is 2400 mg/kg. In the data set on anesthetized dog [5] (setting [12]), the “F.C. (cardiac frequency), variation” value is recorded as 0%; the “HV (time of His-Purkinje conduction), variation” value is reported as “+18 to +100%”; the “PREA (effective auricular refractory period), variation” value was “+6 to +45%”; the “PREV (effective ventricular refractory period), variation” value is “+2 to +15%”. In the data set on anesthetized dog [5] (setting [12]), the “QRS (time of intraventricular conduction), variation” value is on record as 0 to +23% and the “St-H (time of auriculohisien conduction), variation” value is given as 0 to +30%. Further, in data set [6] (setting [13]), the “ESV Percentage at 5 min” value worked out at 11%, the “ESV Percentage at 30 min” value amounted to 27% and the “ESV Percentage at 60 min” value worked out at 45%.
